Assay results from BindingDB's records for doi:10.1074/jbc.M606784200 (Chul, 2007).

Experiments:
[1] = molecular target: T1, Aldo-keto reductase family 1 member C3 (Homo sapiens, UniProt P42330); assay: Scintillation Proximity Assay (SPA); settings: pH 6; 22 °C
T1 sequence (P42330 whole entry): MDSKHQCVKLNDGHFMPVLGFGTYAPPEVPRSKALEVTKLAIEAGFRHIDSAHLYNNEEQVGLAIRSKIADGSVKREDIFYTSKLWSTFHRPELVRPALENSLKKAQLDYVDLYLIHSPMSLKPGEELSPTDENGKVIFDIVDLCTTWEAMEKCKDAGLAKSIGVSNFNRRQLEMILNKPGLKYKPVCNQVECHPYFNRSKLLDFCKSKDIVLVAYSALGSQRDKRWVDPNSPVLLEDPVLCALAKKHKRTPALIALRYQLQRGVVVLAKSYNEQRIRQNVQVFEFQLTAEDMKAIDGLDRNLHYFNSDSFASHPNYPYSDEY
Experimental: SPA beads conjugated to anti-mouse IgG were incubated overnight in buffer with anti-testosterone monoclonal antibody. The enzymatic reaction was monitored by its conversion of 4-androstene-3, 17-dione to testosterone. The amount of [14C] testosterone produced in each well was determined by scintillation counting on a Perkin Elmer TopCount instrument and collected as DPMs. The data was then analyzed and percent inhibition and/or IC50 values, based on 10 point serially diluted curves in duplicate or triplicate, were calculated using Microsoft Excel and XLFit programs.

[2] = molecular target: T1, Aldo-keto reductase family 1 member C3; assay: Inhibition Study on the Interconversion of Testosterone to Androstenedione (4-dione); settings: pH 7.5; 37 °C
Experimental: A radioactive assay was used for the enzyme kinetics in the presence of EM1404 at different concentrations for its Ki determination. Reactions were initiated by the addition of enzyme to the reaction mixture containing substrate and test compounds. After the reaction, the steroids were extracted, separated by TLC migration, and analyzed by phosphorimaging. The Km for testosterone oxidation in the absence of EM-1404, and four apparent Km values in the presence of 1, 3, 10, and 25 nM EM-1404, were determined. Ki value was further determined by a plot of Km vs. the inhibitor concentration.

Row | SMILES | IC50 [1] | Ki [2]
1 | CC1(C)CC[C@@]2(CCC3C4CCc5cc(C(N)=O)ccc5C4CC[C@@]32C)OC1=O (stereo partly drawn) [(2R,15'S)-5,5,15'-trimethyl-6-oxospiro[oxane-2,14'-tetracyclo[8.7.0.0^{2,7}.0^{11,15}]heptadecane]-2',4',6'-triene-5'-carboxamide] | 3.2 nM | 6.9 nM
2 | COCCOc1cc2c(cc1C(=O)ON)C1CC[C@@]3(C)C(CC[C@@]34CCC(C)(C)C(=O)O4)C1CC2 (stereo partly drawn) [(2R,15'S)-5'-(2-methoxyethoxy)-5,5,15'-trimethyl-6-oxospiro[oxane-2,14'-tetracyclo[8.7.0.0^{2,7}.0^{11,15}]heptadecane]-2',4',6'-triene-4'-carboxylate] | 9.5 nM | 
